Assays:
Type in all cases: cell-based, human
[1] = system: Passage 1 ECs (WTC11); assay: EC proliferation (Ki67 immunocytochemistry, cell cycle analysis); conditions: CHIR vs DMSO
Protocol: (§1) Images were analyzed using FIJI (ImageJ) software. For epifluorescence images, 5 fields (20×) were analyzed per well, with 3-4 wells per treatment condition. For quantification of cell number, EC colonies were manually outlined, and the Analyze Particles function was used to estimate the number of nuclei within the EC colonies. Nuclei outside the EC colonies were manually counted. EC purity (% EC) was calculated as the number of nuclei within EC colonies relative to total nuclei. To estimate % GLUT-1^+ ECs, cells within the EC colonies with membrane-localized GLUT-1 immunoreactivity (e.g., arrowheads in FIG. 24B) were manually counted. To estimate % Ki67^+ ECs, cells within the EC colonies with at least one nuclear-localized Ki67 punctum were manually counted. For quantification of fluorescence intensity in epifluorescence images, EC colonies were manually outlined, and the Measure function was used to obtain the mean fluorescence intensity for each image channel (fluorophore). A cell-free area of the plate was similarly quantified for background subtraction. Following background subtraction, the mean fluorescence intensity of each protein of interest was normalized to the mean fluorescence intensity of Hoechst to correct for effects of cell density. For confocal images, 3-4 fields (100×) containing only VE-cadherin^+ ECs were analyzed per well, with 4 wells per treatment condition. […]

[2] = system: Passage 3 ECs; assay: Transendothelial electrical resistance and sodium fluorescein permeability; conditions: CHIR-treated vs DMSO-treated
[3] = system: matured hPSC-derived ECs (Passage 5); assay: CHIR treatment in matured endothelium, immunocytochemistry
Protocol: For extended culture, ECs were selectively dissociated and replated as previously described (Nishihara et al., 2020). Cells were incubated with Accutase until endothelial cells appeared round, typically 2-3 min at 37° C. The plate was tapped to release the ECs while SMLCs remained attached, and the EC-enriched cell suspension transferred to 4× volume of DMEM/F-12 and centrifuged for 5 min, 200×g. Cells were resuspended in hECSR medium and seeded on a new collagen IV-coated plate at approximately 3×10^4 cells/cm^2. hECSR medium was replaced every other day until confluent (typically 6 days). The selective dissociation and seeding described above was repeated, and hECSR medium was again replaced every other day until confluent (typically 6 days). We denote this time point “Passage 3.” In one experiment, these steps were repeated for another two passages. Except where indicated, CHIR 99021 or vehicle (DMSO) was included in the hECSR medium for the entire duration of culture.
Immunocytochemistry was performed in 24-well plates. […]
as §1, with “subtraction.” for “subtraction. Following background subtraction, the mean fluorescence intensity of each protein of interest was normalized to the mean fluorescence intensity of Hoechst to correct for effects of cell density. For confocal images, 3-4 fields (100×) containing only VE-cadherin^+ ECs were analyzed per well, with 4 wells per treatment condition.”

Structure (SMILES): Cc1c[nH]c(-c2cnc(NCCNc3ccc(C#N)cn3)nc2-c2ccc(Cl)cc2Cl)n1 [CHIR, CHIR 99021]
- EC proliferation [1]: increased EC proliferation
- transendothelial electrical resistance (TEER) [2]: elevated transendothelial electrical resistance
- increase in GLUT-1 abundance ([3]; CHIR for 6 days after 4 passages, vs DMSO): approximately 1.5 fold
- EC number ([3]; CHIR in matured ECs): slight decrease in EC number
- claudin-5 expression ([3]; CHIR in matured ECs): variable effects
